Assay results taken from patent publication US20250195714A1, “DEVICES AND METHODS OF TREATING WOUNDS” (University of Massachusetts, priority 2022, published 2025).
“Also recorded” adds a separate entry of the source.

Assays:
[1] = tested on: rhytidoplasty (face lift); details: local TXA irrigation; first twenty-four hours after rhytidoplasty; cited from earlier work
[2] = tested on: keratinocyte and fibroblast cell cultures; details: short exposure to even high concentrations of topical TXA; cited from earlier work
chronic ulcers = test: Chronic ulcers treated with similar TXA dressings; type: in vivo, Human
skin graft donor sites = test: Human patients, skin-graft donor site treated with TXA embedded dressings without a drain; type: in vivo
Procedure: Human patients were treated with TXA embedded dressings. A 50 cm^2 partial thickness wound was generated with a dermatome, thereby creating the skin-graft donor site. […] Non-adherent sterile dressings (TIELLE™) were contacted with the solution and placed directly on the donor site dressing.
The wounds were covered with a semipermeable film ([…]™) without a drain. Normally a dermal drain is placed through the film into contact with the wound with the intention of collecting fluid. A total of 300 ml in 5 days is normally collected (60 ml per day=[…]).

scald injuries = test: Scald injuries treated with similar TXA dressings; type: in vivo, Human
Procedure: In particular, a child with a scald was treated with TIELLE™ containing TXA and the dressing was removed after ten days.

For `NC[C@H]1CC[C@H](C(=O)O)CC1` [TXA, tranexamic acid], the bleeding [1] is listed as “decrease bleeding”, the drainage [1] is listed as “reduce drainage” and the tolerance in vitro [2] is listed as “well tolerated”. For the same compound, the reepithelization (chronic ulcers) was “near complete reepithelization”, the amount of exudate (skin graft donor sites; 50 cm^2 partial thickness skin-graft donor site, one to two grams TXA in 10 ml normal saline on TIELLE dressing, TEGADERM film, no drain) was “reducing significantly the amount of exudate; also recorded: greatly reduce exudate” and the bleeding (skin graft donor sites; skin graft donor sites, topical TXA) was “little bleeding”. The “adverse effect of TXA” value (skin graft donor sites; skin-graft donor site, topical TXA dressing) was “no adverse effect”, the “re-epithelialization of the wound” value (skin graft donor sites; skin-graft donor site, at removal of original dressing (12-14 days, 8-16 days)) was “re-epithelialized skin surface without the need for placement of a further dressing; also recorded: In most cases the wound was fully epithelialized; also recorded: rapid and complete or near complete re-epithelialization” and the reepithelization (scald injuries) was “near complete reepithelization”.
